Publication PMC1479381, “Uncharged isocoumarin-based inhibitors of urokinase-type plasminogen activator” (BMC Chemical Biology, 2006)
Where a name gives a salt, the structure may show the parent alone.

Tests used:
[1] = target: T1, human uPA (Homo sapiens, UniProt P00749); assay: Kinetic inhibition of human urokinase, Spectrozyme UK substrate, initial rates at 405 nm; assay type: biochemical; details: for Ki: 0.1 M Tris, pH 8.8, 25°C, Spectrozyme UK 10 μM to 150 μM, read-out: Ki, dissociation constant for inhibition of human uPA; for fold improvement in Ki over compound 4d: compared with unsubstituted 4d
T1 construct: purchased Sigma/Aldrich, St. Louis, MO
Description: Human urokinase (Sigma/Aldrich, St. Louis, MO) and Spectrozyme UK (American Diagnostica, Stamford, CT) were used for the kinetic studies. Enzyme activity was routinely measured in 1 ml volumes of 0.1 M Tris, pH 8.8, Spectrozyme UK (10 μM to 150 μM) and 0.64 μg (3,770 units/mg protein) human urokinase. Reactions were monitored at 405 nm, 25°C, with a Perkin/Elmer Lambda S2 UV/vis spectrophotometer. Michaelis constants and Ki values were determined from initial rate data, measured at 8 to 10 substrate concentrations, by non-linear regression analysis with SigmaPlot's Enzyme Kinetics Module™ (Chicago, IL, USA).

Ki [1] [µM]	melting point [°C]	fold improvement in Ki over compound 4d [1] [fold]	type of inhibition of uPA ([1]; kinetic studies)	SMILES
14 ± 1	81 to 82	–	–	O=c1oc(OCCBr)c(Cl)c2ccccc12 [Compound 4c, 3-(2-Bromoethoxy)-4-chloro-1H-isochromen-1-one]
9 ± 1	95 to 97	–	simple competitive inhibition	O=c1oc(OCCCBr)c(Cl)c2ccccc12 [Compound 4d, 3-(3-Bromopropoxy)-4-chloro-1H-isochromen-1-one]
0.033 ± 0.004	168 to 170	–	–	Br.N=C(N)SCCOc1oc(=O)c2ccccc2c1Cl [Compound 5c, 2-[2-(4-Chloro-1-oxo-1H-isochromen-3-yloxy)ethyl]isothiourea hydrobromide]
0.14 ± 0.02	–	–	–	N=C(N)SCCCCOc1oc(=O)c2ccccc2c1Cl [Compound 5e, 2-[4-(4-Chloro-1-oxo-1H-isochromen-3-yloxy)butyl]isothiourea hydrobromide]
1.4 ± 0.2	214 to 216	–	–	O=C(Nc1ccc2c(Cl)c(OCCBr)oc(=O)c2c1)c1ccccc1 [Compound 8a, N-[3-(2-Bromoethoxy)-4-chloro-1-oxo-1H-isochromen-7-yl]benzamide]
0.01 ± 0.008	203 to 204	–	–	Br.N=C(N)SCCCOc1oc(=O)c2cc(NC(=O)c3ccccc3)ccc2c1Cl [Compound 9b, 2-[3-(7-Benzamido-4-chloro-1-oxo-1H-isochromen-3-yloxy]propyl)isothiourea hydrobromide]
4.2 ± 0.4	95 to 97	–	–	O=c1oc(OCCBr)cc2ccc([N+](=O)[O-])cc12 [Compound 10a, 3-(2-Bromoethoxy)-7-nitro-1H-isochromen-1-one]
4.3 ± 0.3	117 to 118	–	–	O=c1oc(OCCCBr)cc2ccc([N+](=O)[O-])cc12 [Compound 10b, 3-(3-Bromopropoxy)-7-nitro-1H-isochromen-1-one]
14 ± 2	116 to 117	–	–	O=C(c1c(OCCCBr)oc(=O)c2ccccc12)C(F)(F)F [Compound 10c, 3-(3-Bromopropoxy)-4-trifluoroacetyl-1H-isochromen-1-one]

The next lines start with the compound.

SMILES	Ki [1] [µM]	melting point [°C]	fold improvement in Ki over compound 4d [1] [fold]	type of inhibition of uPA ([1]; kinetic studies)
O=c1oc(OCCBr)c(Cl)c2ccc([N+](=O)[O-])cc12 [Compound 4a, 3-(2-Bromoethoxy)-4-chloro-7-nitro-1H-isochromen-1-one]	1.8 ± 0.2	126 to 128	–	–
O=c1oc(OCCCBr)c(Cl)c2ccc([N+](=O)[O-])cc12 [Compound 4b, 3-(3-Bromopropoxy)-4-chloro-7-nitro-1H-isochromen-1-one]	2.4 ± 0.2	131 to 134	4	–
O=c1oc(OCCCCBr)c(Cl)c2ccccc12 [Compound 4e, 3-(4-Bromobutoxy)-4-chloro-1H-isochromen-1-one]	18 ± 2	75 to 77	–	–
Br.N=C(N)SCCCOc1oc(=O)c2ccccc2c1Cl [Compound 5d, 2-[3-(4-Chloro-1-oxo-1H-isochromen-3-yloxy)propyl]isothiourea hydrobromide]	0.055 ± 0.003	159 to 163	–	–
Nc1ccc2c(Cl)c(OCCBr)oc(=O)c2c1 [Compound 6a, 7-Amino-3-(2-bromoethoxy)-4-chloro-1H-isochromen-1-one]	12 ± 1	134 to 136	–	–
Nc1ccc2c(Cl)c(OCCCBr)oc(=O)c2c1 [Compound 6b, 7-Amino-3-(3-bromopropoxy)-4-chloro-1H-isochromen-1-one]	9.5 ± 1	106 to 107	–	–
N=C(N)SCCOc1oc(=O)c2cc(N)ccc2c1Cl [Compound 7a, 2-[2-(7-amino-4-chloro-1-oxo-1H-isochromen-3-yloxy)ethyl]isothiourea hydrobromide]	0.02 ± 0.003	–	–	–
Br.N=C(N)SCCCOc1oc(=O)c2cc(N)ccc2c1Cl [Compound 7b, 2-[3-(7-Amino-4-chloro-1-oxo-1H-isochromen-3-yloxy)propyl]isothiourea hydrobromide]	0.038 ± 0.005	173	–	–
O=C(Nc1ccc2c(Cl)c(OCCCBr)oc(=O)c2c1)c1ccccc1 [Compound 8b, N-[3-(3-Bromopropoxy)-4-chloro-1-oxo-1H-isochromen-7-yl]benzamide]	0.034 ± 0.002	193 to 194	300	–
Br.N=C(N)SCCOc1oc(=O)c2cc(NC(=O)c3ccccc3)ccc2c1Cl [Compound 9a, 2-[2-(7-Benzamido-4-chloro-1-oxo-1H-isochromen-3-yloxy)ethyl]isothiourea hydrobromide]	0.084 ± 0.007	173 to 175	–	–
Nc1ccc2cc(OCCBr)oc(=O)c2c1 [Compound 11, 7-Amino-3-(2-bromoethoxy)-1H-isochromen-1-one]	65 ± 9	> 280	–	–
